In patent US6414036B1, “Composition for treatment of infections of humans and animals” (Van Beek Global/Ninkov LLC, priority 1999, dated 2002):

Test system: microorganism culture
Assay: Comparative testing: time to death of the culture after contact
Type: cell-based
Method: Isopropyl-o-cresol (95% purity) was obtained as described in Examples I and 2. A 50% solution of isopropyl-o-cresol was prepared by combining 50 grams of isopropyl-o-cresol with […] citric and propionic acid.
An antimicrobial compound containing isopropyl-o-cresol was prepared as described in Examples 3 and 4.
Each compound was administered to a culture of […]. Cell death was observed by monitoring whether or not the cells multiplied.
For example, when the microorganism culture was contacted with isopropyl-o-cresol alone the cells died within 6-8 hours after contact. When the microorganism culture was contacted with isopropyl-o-cresol combined with an organic acid to form a solution (without chemical modification of either species), the microorganisms died within 3-4 hours after exposure. When the microorganism culture was contacted with an antimicrobial compound containing isopropyl-o-cresol reacted with propionic and citric acids (50:50), the organisms died within 5-10 minutes after being contacted with the antimicrobial compound.

SMILES | time within which the organisms died after contact [min] | time within which the cells died after contact [h]
CC(C)c1cc(CC(=O)O)cc(O)c1OC(=O)C(O)(CC(=O)O)CC(=O)O [3-{[4-(carboxymethyl)-2-hydroxy-6-isopropylphenoxy]carbonyl}-3-hydroxypentanedioic acid] | 5 to 10 | 
Cc1ccc(C(C)C)cc1O [isopropyl-o-cresol, 5-isopropyl-2-methylphenol] |  | 6 to 8
